These results are taken from patent EP0253650A2, “Improvements relating to benzothiophene derivatives” (ELI LILLY AND COMPANY, priority 1986, dated 1988).

The structures appear in SMILES notation.

This experiment has as its system guinea pigs. Description: Antigen induced anaphylaxis in guinea pigs (ovalbumin aerosol challenge of sensitized animals). In kind it is in vivo. Conditions: percent inhibition of anaphylaxis (severity index vs placebo), two hours prior to aerosol challenge. How it is done:
Following the general procedure taught by Andersson, Brit. J. Pharmacol., 69, 467 (1980), mixed sex Hartley strain guinea pigs (250-300 g) were sensitized to ovalbumin by a single injection of 1 mcg of ovalbumin mixed with 50 mg of aluminum hydroxide per animal. These animals were used 21 to 26 days later for aerosol challenge with ovalbumin.
Anaphylaxis was induced by exposure to an aerosol of 10 mg of ovalbumin per milliliter of water for 10 minutes delivered by a Tri-R venturi nebulizer, particle size 2 to 5 micron diameter, at a delivery rate of 0.4 ml of solution per minute. The guinea pigs were placed in specially constructed chamber for exposure to the aerosol. The aerosol was introduced from the bottom of the chamber and exhausted at the top. A baffle above the chamber inlet port provided even distribution of the aerosol throughout the chamber. The animals were supported above the inlet on a wire mesh disc. The chamber was under slight negative pressure to enhance the exhaust of the aerosol which was passed through a calcium chloride trap followed by a super-cooled condenser trap.
Groups of five guinea pigs were treated with the compounds of this invention, clinical anti-asthmatic agents, or placebo (vehicle only) two hours prior to the aerosol challenge. All the animals also received 3 mg/kg pyrillamine orally two hours prior to the aerosol challenge in order to blunt the histamine component of the anaphylaxis. The compounds were administered orally as a suspension in 10% acacia or intraperitoneally in 10% acacia.
The number of animals that responded to the aerosol challenge for each of the above parameters as well as the time for the response to occur were recorded. The data were analyzed by comparing the severity index (the sum of the number of animals that coughed, collapsed, and/or died) between the treated and placebo group of guinea pigs. Thus, the maximum severity index for each group of five guinea pigs is 15. On the average, the severity index for the placebo group was 10-12. The percent inhibition of anaphylaxis was determined by the following formula: [formula] where Sd is the severity index for the drug treated animals and Sp is the severity index of the placebo treated animals.

On to `CCOc1cc2cc(C(=O)Nc3nnn[nH]3)sc2cc1OCC` [Example 4, 5,6-Diethoxy-N-1H-tetrazol-5-ylbenzo[b]thiophene-2-carboxamide], for which the “Percent Inhibition” value (dose 50 mg/kg, P.O.) was determined as 56%.

For the compound `CCOc1cc2cc(C#N)sc2cc1OCC` [Example 5, 5,6-Diethoxybenzo[b]thiophene-2-carbonitrile], the “Percent Inhibition” value is recorded as 69% (dose 30 mg/kg, I.P.); 74-84% (dose 50 mg/kg, I.P.); 22% (dose 50 mg/kg, P.O.).

With `CCOc1cc2cc(-c3nnn[nH]3)sc2cc1OCC` [Example 6, 5-(5,6-Diethoxybenzo[b]thien-2-yl)-1H-tetrazole], where the note is “dose 50 mg/kg, P.O.”, the “Percent Inhibition” value was determined as 43%.

Turning to `CCOc1cc2cc(CO)sc2cc1OCC` [Example 7, 5,6-Diethoxybenzo[b]thiophene-2-methanol], the “Percent Inhibition” value is, setting by setting: (dose 30 mg/kg, I.P.) 89%; (dose 50 mg/kg, I.P.) 74%; (dose 50 mg/kg, P.O.) 68%.

Regarding `CCOc1cc2cc(C(=O)N(CC)CC)sc2cc1OCC` [Example 3, N,N-Diethyl-5,6-diethoxybenzo[b]thiophene-2-carboxamide], the “Percent Inhibition” value reads like this: (dose 10 mg/kg, I.P.) 44%; (dose 30 mg/kg, I.P.) 89%; (dose 50 mg/kg, I.P.) 82%; (dose 50 mg/kg, P.O.) 38%.
